Tests used:
[1] = Solubility of dapivirine in water; assay type: physicochemical
[2] = system: wild-type HIV-1 strains and HIV-1 strains harboring different resistance-inducing mutations; conditions: Das et al., J. Med Chem., 2004; cited from earlier work

## Cc1cc(C)c(Nc2ccnc(Nc3ccc(C#N)cc3)n2)c(C)c1 [dapivirine, 4-[[4-[(2,4,6-trimethylphenyl)amino]-2-pyrimidinyl]amino]benzonitrile]
[1]
  Solubility in water: virtually insoluble in water
  solubility: < 1 µg/mL
[2]
  Activity against HIV-1 strains: potent activity
